Patent US6835323B2, “Aqueous hydraulic medium” (Kemira Oyj, priority 1999, dated 2004)
In brackets after ≈: the same amount, converted by molar mass.

Columns and labels:
[1] = tested on: various microbes of paper-industry waste paste; details: inoculated with microbes, within two days
Method: The test was conducted so that each solution to be investigated was taken into two plastic sample flasks, 60 ml into each. One of the two flasks was inoculated with 2 g of paper-industry waste paste containing various microbes, such paste being known as a favorable growth medium for microbes. After mixing, the samples were allowed to stand at room temperature for 2 days.
Culture tests were performed on the samples in a laboratory specialized in microbiologic assays.
The assay of aerobic bacteria was performed using a PCA substrate and incubation for 2 days at 37° C. For the assay of anaerobic bacteria, Brewer's agar and incubation for 2 days in anaerobic vessels at 37° C. were used. In the assay of slime-forming bacteria, PCA-agar+saccharose 50 g/l and incubation for 2 days at 37° C. were used. The slimy colonies were counted. Yeasts and molds were assayed using a Saboraud maltose agar substrate and incubation for 3-4 days at 30° C.

[2] = tested on: Pseudomonas putila bacterium; details: cited from earlier work

| Compound | Effect on inoculated microbes [1] | EC 50 value [2] [mg/L] |
| --- | --- | --- |
| O=C[O-].[K+] [potassium formate] | does not form a growth medium for microbes |  |
| O=CO [formic acid] |  | 46.7 (≈ 1010 µM) |
| CCC(=O)O [propionic acid] |  | 59.6 (≈ 805 µM) |
